Target: T1, His-tagged human recombinant DDR-2 kinase domain (His-TEV-DDR2 467-855 aa) (Homo sapiens, UniProt Q16832)
T1 construct: His-TEV-DDR2 467-855 aa
T1 sequence (Q16832 467-855): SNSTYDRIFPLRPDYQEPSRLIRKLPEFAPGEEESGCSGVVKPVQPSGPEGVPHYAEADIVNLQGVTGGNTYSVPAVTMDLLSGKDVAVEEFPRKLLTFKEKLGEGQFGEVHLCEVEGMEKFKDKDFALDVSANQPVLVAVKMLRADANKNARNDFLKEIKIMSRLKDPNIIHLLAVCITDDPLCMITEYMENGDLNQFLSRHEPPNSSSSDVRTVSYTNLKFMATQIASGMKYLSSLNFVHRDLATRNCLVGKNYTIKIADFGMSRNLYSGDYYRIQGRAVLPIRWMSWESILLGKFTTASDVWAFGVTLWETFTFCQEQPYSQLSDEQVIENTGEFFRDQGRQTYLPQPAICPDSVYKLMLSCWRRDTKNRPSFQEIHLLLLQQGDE
Experiment: Autophosphorylation assay for biochemical activity testing of DDR2 (HTRF)
Conditions: 4 nM DDR2 kinase domain, 150 μM ATP, 150 min at 22° C.
Experimental: The autophosphorylation assay was run in two steps: the enzymatic reaction in which His-tagged DDR2 with ATP as co-substrate phosphorylates itself and the detection reaction where a time resolved FRET between XL665® labelled anti-6His antibody bound to the His-tag of the enzyme and cryptate labelled anti-phospho-Tyrosine-antibody (PT66) bound the phosphorylated Tyrosine residue of DDR2 was analysed. The autophosphorylation activity was detectable directly via the increase in HTRF signal.
The autophosphorylation assay was performed as 1536 well or 384 well HTRF® (Cisbio, Codolet, France) assay format in Greiner low volume medium binding 384-well microtiter plates and was used for high throughput screen. […] The ratio of the emission signals was determined. The full value used was the inhibitor-free reaction.

Which IC50 does the source give for `Cc1cc(Oc2ccc(CNC(=O)Nc3cc4ccccc4cn3)cc2C)ccn1` [compound 34] here?
The IC50 was 11 µM.

With `CNC(=O)c1cc(Oc2ccc(CNC(=O)Nc3cc(C)cnc3Cl)cc2)ccn1` [compound 22] as the molecule, how does the IC50 read?
The IC50 was 0.71 µM.

Which IC50 does the source give for `CNC(=O)c1cc(Oc2ccc(CNC(=O)Nc3ccc(C)cn3)cc2)ccn1` [compound 12] here?
Its IC50 is 2 µM.

With `Cn1cc(C(F)(F)F)cc(NC(=O)NCc2ccc(Oc3ccncc3C(F)(F)F)cc2)c1=O` [compound 13] as the molecule, how does the IC50 read?
The IC50 was 1.6 µM.

How did the IC50 turn out when `CNC(=O)c1cc(Oc2ccc(CNC(=O)Nc3cccnc3)cc2)ccn1` [compound 5] was run?
Its IC50 is 15 µM.

Same assay, conditions: biochemical DDR2 autophosphorylation

For `O=C(NCc1ccc(Oc2ccncc2)cc1)Nc1cccc(C(F)(F)F)c1` [compound 4], which IC50 is on record?
The IC50 was 0.036 µM.

With `O=C(NCc1ccc(Oc2ccncc2)cc1)Nc1cc(Cl)cc(Cl)c1` [compound 57, 1-(3,5-Dichloro-phenyl)-3-[4-(pyridin-4-yloxy)-benzyl]-urea] as the molecule, how does the IC50 read?
Its IC50 is 1.2 µM.

`CNC(=O)c1cc(Oc2ccc(CNC(=O)Nc3cc(C(F)(F)F)c(Cl)cc3OCC(=O)O)cc2)ccn1` [compound 98, (5-Chloro-2-{3-[4-(2-methylcarbamoyl-pyridin-4-yloxy)-benzyl]-ureido}-4-trifluoromethyl-phenoxy)-acetic acid] was tested. Which IC50 did it give?
The IC50 was 3.3 µM.

With `O=C(NCc1ccc(Oc2ccncc2)cc1)Nc1cc(Cl)c(Cl)cc1Cl` [compound 2] as the molecule, how does the IC50 read?
The IC50 was 1.4 µM.

With `CCc1cccc(NC(=O)NCc2ccc(Oc3ccncc3)cc2)c1` [compound 61, 1-(3-Ethyl-phenyl)-3-[4-(pyridin-4-yloxy)-benzyl]-urea] as the molecule, how does the IC50 read?
Its IC50 is 0.49 µM.

`Cc1cc(NC(=O)NCc2ccc(Oc3ccnc(N)c3)c(C)c2)c(OCCN(C)C)cc1Cl` [compound 254, 1-[4-(2-Amino-pyridin-4-yloxy)-3-methyl-benzyl]-3-[4-chloro-2-(2-dimethylamino-ethoxy)-5-methyl-phenyl]-urea] was tested. Which IC50 did it give?
The IC50 was 0.031 µM.

For `CC(=O)c1ccc(NC(=O)NCc2ccc(Oc3ccncc3)cc2)cc1` [compound 47, 1-(4-Acetyl-phenyl)-3-[4-(pyridin-4-yloxy)-benzyl]-urea], which IC50 is on record?
Its IC50 is 8.8 µM.

For `COc1ccc(NC(=O)NCc2ccc(Oc3ccncc3)cc2)cc1Cl` [compound 60, 1-(3-Chloro-4-methoxy-phenyl)-3-[4-(pyridin-4-yloxy)-benzyl]-urea], which IC50 is on record?
Its IC50 is 2.8 µM.

`CNC(=O)c1cc(Oc2ccc(CNC(=O)Nc3cc(C(F)(F)F)c(Cl)cc3OC)cc2)ccn1` [compound 67, 4-{4-[3-(4-Chloro-2-methoxy-5-trifluoromethyl-phenyl)-ureidomethyl]-phenoxy}-pyridine-2-carboxylic acid methylamide] was tested. Which IC50 did it give?
Its IC50 is 0.175 µM.

With `CSc1ccc(NC(=O)NCc2ccc(Oc3ccncc3)cc2)cc1` [compound 51, 1-(4-Methylsulfanyl-phenyl)-3-[4-(pyridin-4-yloxy)-benzyl]-urea] as the molecule, how does the IC50 read?
The IC50 was 10 µM.

For `CNC(=O)c1cc(Oc2ccc(CNC(=O)Nc3cc(Cl)c(C)cc3OC)cc2F)ccn1` [compound 216, 4-{4-[3-(5-Chloro-2-methoxy-4-methyl-phenyl)-ureidomethyl]-2-fluoro-phenoxy}-pyridine-2-carboxylic acid methylamide], which IC50 is on record?
Its IC50 is 0.043 µM.

With `CNC(=O)c1cc(Oc2ccc(CNC(=O)Nc3cc(C)c(Cl)cc3OCCCCN(C)C)cc2)ccn1` [compound 161, 4-(4-{3-[4-Chloro-2-(4-dimethylamino-butoxy)-5-methyl-phenyl]-ureidomethyl}-phenoxy)-pyridine-2-carboxylic acid methylamide] as the molecule, how does the IC50 read?
Its IC50 is 0.16 µM.

For `COc1cc(Cl)c(C)cc1NC(=O)NCc1ccc(Oc2ccnc3cc(C)oc23)c(C)c1` [compound 252, 1-(4-Chloro-2-methoxy-5-methyl-phenyl)-3-[3-methyl-4-(2-methyl-furo[3,2-b]pyridin-7-yloxy)-benzyl]-urea], which IC50 is on record?
Its IC50 is 0.75 µM.

Which IC50 does the source give for `O=C(NCc1ccc(Oc2ccncc2)cc1)Nc1ccccc1Br` [compound 48, 1-(2-Bromo-phenyl)-3-[4-(pyridin-4-yloxy)-benzyl]-urea] here?
Its IC50 is no less than 100 µM.

`CNC(=O)c1cc(Oc2ccc(CNC(=O)Nc3cc(C)c(Cl)cc3OCCN3CCCC3)cc2)ccn1` [compound 116, 4-(4-{3-[4-Chloro-5-methyl-2-(2-pyrrolidin-1-yl-ethoxy)-phenyl]-ureidomethyl}-phenoxy)-pyridine-2-carboxylic acid methylamide] was tested. Which IC50 did it give?
Its IC50 is 0.41 µM.

Which IC50 does the source give for `O=C(NCc1ccc(Oc2ccncc2)cc1)Nc1cccc(OC(F)(F)F)c1` [compound 65, 1-[4-(Pyridin-4-yloxy)-benzyl]-3-(3-trifluoromethoxy-phenyl)-urea] here?
The IC50 was 0.035 µM.

With `CNC(=O)c1cc(Oc2ccc(CNC(=O)Nc3cc(C(F)(F)F)ccc3OCC(=O)OC)cc2)ccn1` [compound 92, (2-{3-[4-(2-Methylcarbamoyl-pyridin-4-yloxy)-benzyl]-ureido}-4-trifluoromethyl-phenoxy)-acetic acid methyl ester] as the molecule, how does the IC50 read?
Its IC50 is 0.038 µM.

Which IC50 does the source give for `CNC(=O)c1cc(Oc2ccc(CNC(=O)Nc3cc(Cl)ccc3OC)c(C)c2)ccn1` [compound 104, 4-{4-[3-(5-Chloro-2-methoxy-phenyl)-ureidomethyl]-3-methyl-phenoxy}-pyridine-2-carboxylic acid methylamide] here?
The IC50 was 0.27 µM.

Which IC50 does the source give for `COc1cc(Cl)c(C)cc1NC(=O)NCc1ccc(Oc2ccnc(C(=O)NCCN)c2)cc1` [compound 123, 4-{4-[3-(4-Chloro-2-methoxy-5-methyl-phenyl)-ureidomethyl]-phenoxy}-pyridine-2-carboxylic acid (2-amino-ethyl)-amide] here?
The IC50 was 3.1 µM.

With `CNC(=O)c1cc(Oc2ccc(CNC(=O)Nc3cc(C(F)(F)F)c(Cl)cc3OCCN3CCOCC3)cc2)ccn1` [compound 131, 4-(4-{3-[4-Chloro-2-(2-morpholin-4-yl-ethoxy)-5-trifluoromethyl-phenyl]-ureidomethyl}-phenoxy)-pyridine-2-carboxylic acid methylamide] as the molecule, how does the IC50 read?
Its IC50 is 0.096 µM.

`Cc1cc(NC(=O)NCc2ccc(Oc3ccncn3)c(C)c2)c(OCCN(C)C)cc1Cl` [compound 250, 1-[4-Chloro-2-(2-dimethylamino-ethoxy)-5-methyl-phenyl]-3-[3-methyl-4-(pyrimidin-4-yloxy)-benzyl]-urea] was tested. Which IC50 did it give?
The IC50 was 1.2 µM.

For `O=C(NCc1ccc(Oc2ccncc2)cc1)Nc1ccccc1` [compound 245, 1-Phenyl-3-[4-(pyridin-4-yloxy)-benzyl]-urea], which IC50 is on record?
The IC50 was 9.2 µM.

For `CNC(=O)c1cc(Oc2ccc(CNC(=O)Nc3ccccc3OCCCN(C)C)cc2)ccn1` [compound 86, 4-(4-{3-[2-(3-Dimethylamino-propoxy)-phenyl]-ureidomethyl}-phenoxy)-pyridine-2-carboxylic acid methylamide], which IC50 is on record?
Its IC50 is 1.2 µM.

With `CCOc1ccc(C(F)(F)F)cc1NC(=O)NCc1ccc(Oc2ccnc(C(=O)NC)c2)cc1` [compound 230, 4-{4-[3-(2-Ethoxy-5-trifluoromethyl-phenyl)-ureidomethyl]-phenoxy}-pyridine-2-carboxylic acid methylamide] as the molecule, how does the IC50 read?
The IC50 was 0.089 µM.

With `O=C(NCc1ccc(Oc2ccncc2)cc1)Nc1cc(C(F)(F)F)cc(C(F)(F)F)c1` [compound 22] as the molecule, how does the IC50 read?
The IC50 was 0.56 µM.

`CCOc1ccc(NC(=O)NCc2ccc(Oc3ccncc3)cc2)cc1` [compound 41, 1-(4-Ethoxy-phenyl)-3-[4-(pyridin-4-yloxy)-benzyl]-urea] was tested. Which IC50 did it give?
Its IC50 is no less than 100 µM.

`Cc1cccc(NC(=O)NCc2ccc(Oc3ccncc3)cc2)c1` [compound 6] was tested. Which IC50 did it give?
Its IC50 is 1 µM.
